{"source": "patent US6681132B1", "about": "“Sodium magnetic reasonance imaging used in diagnosing tumors and assessing response to treatment” (The Trustees of Columbia University in the City of New York, priority 1999, dated 2004)", "type_in_all_cases": "cell-based, human", "key": {"[1]": {"system": "PC3 cells", "experiment": "Annexin V/FITC labeling of live (propidium iodide negative) cells, flow cytometry", "method": "Enhanced FITC fluorescence (annexin positive response; panel B) indicated reorientation of phosphatidylserine within the cell membrane. PI was added to detect dead cells, which was both PI and annexin positive, the latter response due to internal binding of an antibody to phosphatidylserine sites accessed through membrane rupture. Control cells were mostly PI and FITC negative. The percentage of live PC3 cells that were annexin positive (vertical axis) is plotted versus time (horizontal axis) for taxotere (10 nM; filled circles) and VP-16 (10 ug/ml; filled triangles). A one dimensional annexin histogram (FITC intensity) for live cells is shown for control (bottom insert) and after 24 hrs VP-16 (top insert). Flow cytometry was performed on the Becton/Dickenson FACStar II (APO-BrdU) or exCaliber flow system (Annexing) at the Columbia University Cancer Center and analyzed using CellQuest Software.\na) Early events—reorientation of phosphatidylserine: Live cells exposed to an Annexin V/FITC conjugated antibody. Enhanced fluorescence indicates reorientation of phosphatidylserine within the cell membrane (61, 93). Propidium iodide (PI) concurrently indicates cell viability. Since trypsin cleaves the annexin binding site, for dissociating cells from explanted tumor, trypsin containing collagenase preparations were not used. Cells are dissociated by mincing the tumor with surgical scissors and passing tissue repeatedly through needles while increasing the gauge. Cells are removed from tissue culture plates using 1 mM EDTA in Ca/Mg free PBS.\nFlow cytometry was used to examine a second, presumably an earlier event in the apoptotic cascade, reorientation of phosphatidylserine within the cell membrane (FIG. 3.B.). Live cells were exposed to an annexin\\V/FITC conjugated antibody. For annexin labeling, cells were cultured for 1 day, treated, then lifted off the culture plate using PBS plus EDTA and exposed to Annexin V/FITC conjugated antibody. Trypsin—which cleaves the antibody binding site—was avoided."}, "[2]": {"system": "DU145 cells", "experiment": "APO-BRDU endlabelling of DNA fragmentation, flow cytometry, DU145", "details": "for time course of DNA fragmentation: DU 145, 24-hr sample point", "method": "Chemotherapy, cellular apoptosis, ion activity Cells were cultured and drugs added to media for various times. Fluorescent endlabelling techniques for flow cytometry have been described in detail (23, 97). […] TdT attaches BrdU to DNA ends, following which fluorescent antibodies for BrdU tagged the DNA fragments. Propidium iodide (PI) gives cell cycle position.\nAt the end of the treatment period, cells are trypsinized, resuspended in media, resuspended in PBS, resuspended in iced cold methanol free formaldehyde (1% in PBS) for 15 min, resuspended in 70% ethanol and stored at −20° C. until all samples from a given experiment are ready to run (19, 23).\nFixed cells are labeled following kit instructions (two washes with kit buffer, overnight endlabelling, two resuspensions in a rinse buffer, exposure to fluorescent antibody and treatment with propidium iodide and RNAase. Flow cytometry is performed on a Becton/Dickenson FACStar II. Individual fluorescence intensity values for 10,000 cells are obtained for each sample.\nTo specifically assay DNA fragmentation, a downstream response to apoptosis, uses of a terminal deoxynucleotidyl transferase labeling approach whereby fluorescent moieties are enzymatically attached to all DNA fragment ends."}, "[3]": {"system": "PC3 cells", "experiment": "Free [Nai] with SBFI/AM in 96 well plates, fluorescent plate reader", "details": "for earliest time of increase of mean SBFI ratio ([Nai]): 10 nM taxotere or 10 μg/ml VP-16 etoposide", "text": "For ion measurements (panels C & D), plates were run on a Fluoroskan II fluorescent plate reader (Titertek) using Titertek's computer Interface. Fura II loaded wells (panel D) had measured fluorescence intensities between 15,000 and 25,000 units whereby dye free wells had values ˜100 and 500. The wells with SBFI/AM loaded cells (panel C) had intensities between 4,000 and 9,000 units. Two excitation values were used for each well measurement. Ratios were derived by dividing fluorescent intensity at 345 nm excitation by that at 390 nm, both with a 508 nm mission filter. For all plates, dye free wells were examined for both control and drug treated cells, and served as background values for each wavelength. For [Cai] experiments a second means of determining background fluorescence, which gave statistically similar results, was exposure to 6 mM MnCl2 following the initial measurement. […] Backgrounds were subtracted from each cell in the protocol grouping prior to the ratio being derived. These individual well to well ratios for each protocol grouping were averaqed and used in the statistical tests which determined whether the changes in [Nai] and [Cai] following drug application were significant. Each value plotted below consisted of at least n=5 well ratios. As an additional control, we induced an acute [Cai] response in some control wells for each plate by adding thapsigargin after the initial measurement. Rapid and large [Cai] changes were detected in each case. To derive concentration values from the fluorescence readings, different, but standard approaches (26, 73), were taken with each dye. Both panels C and D show elevation of ion activity developing within 2-6 hours, and in the most part continuing for 18-24 hours.\nb. SBFI/AM—This dual excitation wavelength dye is used in a fluorescent plate scanner. With SBFI/AM, we can treat cells cultured in black (non fluorescent) 96 well plates and measure average [Nai] of the cells in each well. [Nai] is calculated using ratio method and in situ calibration—thus ionophores (monensin and gramidicidin) eliminate the transmembrane gradient so that [Nai] can be altered by changing [Nao].\nComparison of the latency of these apoptotic markers with the ionic responses induced by taxotere and VP-16 at the same doses (10 nM and 10 ug/ml, respectively). […] Since its dual wavelength ultraviolet excitation requirement is impractical for flow cytometry, adherent cells were examined in 96 well culture plates using a fluorescent plate reader (Titertek, Fluoroskan II). […] The ratios of emission intensity at the two excitation wavelengths were calculated for each well, and the average ratio plotted for each time point (FIG. 3.C.; left vertical axis). […]"}, "[4]": {"details": "24 hrs, VP-16 10 μg/ml, taxotere 10 nM"}}, "data": [{"smiles": "COc1cc([C@@H]2c3cc4c(cc3[C@@H](O[C@@H]3O[C@@H]5CO[C@@H](C)O[C@H]5[C@H](O)[C@H]3O)[C@H]3COC(=O)[C@H]23)OCO4)cc(OC)c1O", "note": "[VP-16, etoposide]", "values": [{"measurement": "fraction of live cells (propidium iodide negative) in the annexin V positive peak", "setting": "[1]; 10 μg/ml, maximum response (24 hrs)", "result": "Up to ⅔"}, {"measurement": "annexin V response", "setting": "[1]; 17 hrs, 10 μg/ml", "result": "apparent"}, {"measurement": "annexin V response", "setting": "[1]; [4]", "result": "pronounced"}, {"measurement": "standard dose relative to Kd of annexin V dose response curve", "setting": "[1]; Kd measured at 24 hrs, standard dose 10 μg/ml", "result": "approximately 3 ×Kd"}, {"measurement": "time course of DNA fragmentation", "setting": "[2]", "result": "response peaks and subsides"}, {"measurement": "endlabelling response", "setting": "[2]; Du145, 8 hrs", "result": "No response"}, {"measurement": "increase of endlabelling intensity (DNA fragmentation)", "setting": "[2]; Du145, 24 hrs exposure", "result": 100, "unit": "fold"}, {"measurement": "earliest time of increase of mean SBFI ratio ([Nai])", "setting": "[3]", "result": 2, "unit": "h"}]}, {"smiles": "CC(=O)O[C@@]12CO[C@@H]1C[C@H](O)[C@@]1(C)C(=O)[C@H](O)C3=C(C)[C@@H](OC(=O)[C@H](O)[C@@H](NC(=O)OC(C)(C)C)c4ccccc4)C[C@@](O)([C@@H](OC(=O)c4ccccc4)[C@H]21)C3(C)C", "note": "[taxotere]", "values": [{"measurement": "time by which markers for apoptosis were detectable", "setting": "[1]; 10 nMol/L in culture", "result": "≤ 24", "unit": "h"}, {"measurement": "time by which markers for apoptosis were pronounced", "setting": "[1]; 10 nMol/L in culture", "result": "≤ 48", "unit": "h"}, {"measurement": "annexin V response", "setting": "[1]; [4]", "result": "much less pronounced"}, {"measurement": "standard dose relative to Kd of annexin V dose response curve", "setting": "[1]; Kd measured at 48 hrs, standard dose 10 nM", "result": "approximately 3 ×Kd"}, {"measurement": "annexin V response", "setting": "[1]; higher drug concentrations (10.0 μM) or later times (e.g. 48 hrs)", "result": "substantially greater"}, {"measurement": "time course of DNA fragmentation", "setting": "[2]", "result": "response peaks and subsides"}, {"measurement": "earliest time of increase of mean SBFI ratio ([Nai])", "setting": "[3]", "result": 2, "unit": "h"}, {"measurement": "persistence of ionic elevations ([Nai], [Cai])", "setting": "[3]; 10 nMol/L in tissue culture", "result": "at least 24 hrs"}, {"measurement": "time by which ionic elevations ([Nai], [Cai]) were significant", "setting": "[3]; 10 nMol/L in tissue culture", "result": "≤ 6", "unit": "h"}]}]}
